This note sets out measurements from patent publication US11505528B2, “Inhibitors of microbially induced amyloid” (Axial Therapeutics, Inc., priority 2017, dated 2022).

Read-outs that look alike come from different tables or passages of the source.

One experiment has as its target T1, E. coli CsgA (Escherichia coli, UniProt P28307).
T1 construct: 6xHis (C); made in house; host or cells: E. coli NEB 3016 slyD::kan
The experiment can be described thus: Thioflavin T cell-free assay of CsgA aggregation. Type of experiment: biochemical.

Another experiment concerns the target T2, human α-synuclein (Homo sapiens, UniProt P37840).
T2 construct: the full-length gene for untagged human α-synuclein was inserted; made in house; host or cells: E. coli BL21 (DE3)
The experiment can be described thus: Thioflavin T cell-free assay of α-synuclein aggregation. It counts as biochemical. The settings on record: α-synuclein 50 μM, compounds at 20-50 μM, data from 36 hours; for Inhibition of Aggregation, αSyn: ThT fluorescence, negative = potentiation.

Setting [1] is: read-out: Inhibition of Aggregation, CsgA.
Where [2] appears, read: read-out: Inhibition of Aggregation, CsgA (compound activity range).

T1 sequence (P28307 23-151): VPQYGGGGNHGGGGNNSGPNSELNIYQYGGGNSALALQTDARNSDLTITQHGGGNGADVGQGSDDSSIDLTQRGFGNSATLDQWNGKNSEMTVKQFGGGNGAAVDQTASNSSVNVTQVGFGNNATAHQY

Consider `COc1cc(NC(=O)c2c(NC(=O)c3cc(OC)c(OC)c(OC)c3)sc3c2CCCC3)cc(OC)c1OC` [Compound 1, 2-(3,4,5-trimethoxybenzamido)-N-(3,4,5-trimethoxyphenyl)-4,5,6,7-tetrahydrobenzo[b]thiophene-3-carboxamide], for which the inhibition at 20 µM on E. coli CsgA (setting [1]) is 8%; at E. coli CsgA (setting [2]), -10 to 10%.

`COc1cc(OC)cc(C(=O)Nc2sc3c(c2C(=O)Nc2cc(OC)c(OC)c(OC)c2)CCCC3)c1` [Compound 3, 2-(3,5-dimethoxybenzamido)-N-(3,4,5-trimethoxyphenyl)-4,5,6,7-tetrahydrobenzo[b]thiophene-3-carboxamide]: the results for the inhibition at 20 µM on E. coli CsgA (setting [1]) and on E. coli CsgA (setting [2]) were -11% and < -10%, respectively.

Take `O=C(Nc1sc2c(c1C(=O)Nc1cc(O)c(O)c(O)c1)CCCC2)c1cc(O)cc(O)c1` [Compound 4, 2-(3,5-dihydroxybenzamido)-N-(3,4,5-trihydroxyphenyl)-4,5,6,7-tetrahydrobenzo[b]thiophene-3-carboxamide]: the inhibition at 20 µM on E. coli CsgA (setting [1]) was 43%; at E. coli CsgA (setting [2]), 30 to 60%.

`COc1cc(NC(=O)c2c(NC(=O)c3cc(OC)c(OC)c(OC)c3)sc3c2CCCC3)cc(OC)c1` [Compound 5, N-(3,5-dimethoxyphenyl)-2-(3,4,5-trimethoxybenzamido)-4,5,6,7-tetrahydrobenzo[b]thiophene-3-carboxamide]: the “Inhibition of Aggregation, αSyn” value on human α-synuclein was found to be 22%. Also, at human α-synuclein, the “Inhibition of Aggregation, αSyn (compound activity range)” value (shortened to “Inhibition … (compound activity range)”) is “(+) ((+) is between 10% to 30% inhibition)”. The inhibition at 20 µM is -4% on E. coli CsgA (setting [1]) and -10 to 10% on E. coli CsgA (setting [2]).

On to `COc1cc(C(=O)Nc2sc3c(c2C(=O)N(C)c2cc(OC)c(OC)c(OC)c2)CCCC3)cc(OC)c1OC` [Compound 7, N-methyl-2-(3,4,5-trimethoxybenzamido)-N-(3,4,5-trimethoxyphenyl)-4,5,6,7-tetrahydrobenzo[b]thiophene-3-carboxamide], for which the figures for the inhibition at 20 µM at E. coli CsgA (setting [1]) and on E. coli CsgA (setting [2]) were 2% and -10 to 10%, respectively.

On to `O=C(Nc1sc2c(c1C(=O)Nc1ccccc1)CCCC2)c1cc(O)c(O)c(O)c1` [Compound 8, N-phenyl-2-(3,4,5-trihydroxybenzamido)-4,5,6,7-tetrahydrobenzo[b]thiophene-3-carboxamide], for which, on human α-synuclein, the “Inhibition of Aggregation, αSyn” value turned out to be 18% and the “Inhibition … (compound activity range)” value is given as “(+) ((+) is between 10% to 30% inhibition)”. The inhibition at 20 µM at E. coli CsgA (setting [1]) is 13%. The inhibition at 20 µM on E. coli CsgA (setting [2]) lay in the range of 10 to 30%.

As to `COc1cc(C(=O)Nc2sc3c(c2C(=O)Nc2ccccc2)CCCC3)cc(OC)c1OC` [Compound 9, N-phenyl-2-(3,4,5-trimethoxybenzamido)-4,5,6,7-tetrahydrobenzo[b]thiophene-3-carboxamide], the inhibition at 20 µM at E. coli CsgA (setting [1]) is -33%; on E. coli CsgA (setting [2]) it was < -10%.

In the case of `COc1cc(NC(=O)c2c(NC(=O)c3ccccc3)sc3c2CCCC3)cc(OC)c1OC` [Compound 11, 2-benzamido-N-(3,4,5-trimethoxyphenyl)-4,5,6,7-tetrahydrobenzo[b]thiophene-3-carboxamide], the inhibition at 20 µM on E. coli CsgA (setting [1]) is -24%; at E. coli CsgA (setting [2]), < -10%.

On to `COc1cc(C(=O)Nc2sc3c(c2C(N)=O)CCCC3)cc(OC)c1OC` [Compound 12, 2-(3,4,5-trimethoxybenzamido)-4,5,6,7-tetrahydrobenzo[b]thiophene-3-carboxamide], for which the inhibition at 20 µM at E. coli CsgA (setting [1]) is -23%; on E. coli CsgA (setting [2]), < -10%.

As for `COc1cc(NC(=O)c2c(N(C)C(=O)c3cc(OC)c(OC)c(OC)c3)sc3c2CCCC3)cc(OC)c1OC` [Compound 13, 2-(3,4,5-trimethoxy-N-methylbenzamido)-N-(3,4,5-trimethoxyphenyl)-4,5,6,7-tetrahydrobenzo[b]thiophene-3-carboxamide], the inhibition at 20 µM on E. coli CsgA (setting [1]) is -16%; on E. coli CsgA (setting [2]), < -10%.

On to `NC(=O)c1c(NC(=O)c2cc(O)c(O)c(O)c2)sc2c1CCCC2` [Compound 15, 2-(3,4,5-trihydroxybenzamido)-4,5,6,7-tetrahydrobenzo[b]thiophene-3-carboxamide], for which the inhibition at 20 µM at E. coli CsgA (setting [1]) is 52%; at E. coli CsgA (setting [2]), 30 to 60%.

Regarding `Nc1sc2c(c1C(=O)Nc1cc(O)c(O)c(O)c1)CCCC2` [Compound 16, 2-amino-N-(3,4,5-trihydroxyphenyl)-4,5,6,7-tetrahydrobenzo[b]thiophene-3-carboxamide], the inhibition at 20 µM on E. coli CsgA (setting [1]) is 31%; on E. coli CsgA (setting [2]), 30 to 60%.

For the compound `COc1cc(C(=O)Nc2sc3c(c2C(=O)O)CCCC3)cc(OC)c1OC` [Compound 17, 2-(3,4,5-trimethoxybenzamido)-4,5,6,7-tetrahydrobenzo[b]thiophene-3-carboxylic acid], the inhibition at 20 µM was 18% on E. coli CsgA (setting [1]) and 10 to 30% at E. coli CsgA (setting [2]).

Regarding `O=C(Nc1sc2c(c1C(=O)Nc1cc(O)c(O)c(O)c1)CCCC2)c1ccccc1` [Compound 18, 2-benzamido-N-(3,4,5-trihydroxyphenyl)-4,5,6,7-tetrahydrobenzo[b]thiophene-3-carboxamide], the inhibition at 20 µM at E. coli CsgA (setting [1]) was 16%; on E. coli CsgA (setting [2]) it was 10 to 30%.

On to `COc1cc(OC)c2c(=O)c(C(=O)Nc3cc(OC)c(OC)c(OC)c3)c[nH]c2c1` [Compound 21, 5,7-dimethoxy-4-oxo-N-(3,4,5-trimethoxyphenyl)-1,4-dihydroquinoline-3-carboxamide], for which the “Inhibition of Aggregation, αSyn” value on human α-synuclein was −1%. Moreover, the “Inhibition … (compound activity range)” value on human α-synuclein is given as “(−) ((−) is between −10% to 10% inhibition)”. The inhibition at 20 µM is 4% at E. coli CsgA (setting [1]) and -10 to 10% at E. coli CsgA (setting [2]).

For the compound `O=C(Nc1cc(O)c(O)c(O)c1)c1c[nH]c2cc(O)cc(O)c2c1=O` [Compound 22, 5,7-dihydroxy-4-oxo-N-(3,4,5-trihydroxyphenyl)-1,4-dihydroquinoline-3-carboxamide], the inhibition at 20 µM was 58% on E. coli CsgA (setting [1]) and 30 to 60% on E. coli CsgA (setting [2]).

In the case of `COc1cc(OC)c2c(=O)c(C(=O)Nc3ccccc3)c[nH]c2c1` [Compound 25, 5,7-dimethoxy-4-oxo-N-phenyl-1,4-dihydroquinoline-3-carboxamide], at human α-synuclein, the “Inhibition of Aggregation, αSyn” value is 17%. The “Inhibition … (compound activity range)” value at human α-synuclein is “(+) ((+) is between 10% to 30% inhibition)”. Moreover, the inhibition at 20 µM on E. coli CsgA (setting [1]) was -150%; on E. coli CsgA (setting [2]) it was < -10%.

As to `COc1cc2[nH]cc(C(=O)Nc3ccc(O)cc3)c(=O)c2c(OC)c1OC` [Compound 29, N-(4-hydroxyphenyl)-5,6,7-trimethoxy-4-oxo-1,4-dihydroquinoline-3-carboxamide], the inhibition at 20 µM is 9% at E. coli CsgA (setting [1]) and -10 to 10% at E. coli CsgA (setting [2]).

For the compound `COc1cc2[nH]cc(C(=O)Nc3ccccc3)c(=O)c2c(OC)c1OC` [Compound 30, 5,6,7-trimethoxy-4-oxo-N-phenyl-1,4-dihydroquinoline-3-carboxamide], the inhibition at 20 µM was -56% on E. coli CsgA (setting [1]) and < -10% at E. coli CsgA (setting [2]).

Turning to `COc1cc(OC)c2c(=O)c(C(=O)Nc3ccc(O)cc3)c[nH]c2c1` [Compound 31, N-(4-hydroxyphenyl)-5,7-dimethoxy-4-oxo-1,4-dihydroquinoline-3-carboxamide], the inhibition at 20 µM was -20% on E. coli CsgA (setting [1]) and < -10% on E. coli CsgA (setting [2]).

For `COc1cc2[nH]cc(C(=O)Nc3ccc(O)c(F)c3)c(=O)c2c(OC)c1OC` [Compound 34, N-(3-fluoro-4-hydroxyphenyl)-5,6,7-trimethoxy-4-oxo-1,4-dihydroquinoline-3-carboxamide], the inhibition at 20 µM at E. coli CsgA (setting [1]) is -11%; at E. coli CsgA (setting [2]) it was < -10%.

On to `COc1cc(OC)c2c(=O)c(C(=O)N(C)c3cc(OC)c(OC)c(OC)c3)c[nH]c2c1` [Compound 35, 5,7-dimethoxy-N-methyl-4-oxo-N-(3,4,5-trimethoxyphenyl)-1,4-dihydroquinoline-3-carboxamide], for which the inhibition at 20 µM is -53% at E. coli CsgA (setting [1]) and < -10% at E. coli CsgA (setting [2]).

In the case of `COc1cc(-c2[nH]c3cc(OC)c(OC)c(OC)c3c(=O)c2C(=O)O)cc(OC)c1OC` [Compound 36, 5,6,7-trimethoxy-4-oxo-2-(3,4,5-trimethoxyphenyl)-1,4-dihydroquinoline-3-carboxylic acid], the inhibition at 20 µM at E. coli CsgA (setting [1]) was -47%; on E. coli CsgA (setting [2]) it was < -10%.

`COc1cc(OC)c2c(=O)c(C(=O)Nc3ccc(O)c(F)c3)c[nH]c2c1` [Compound 37, N-(3-fluoro-4-hydroxyphenyl)-5,7-dimethoxy-4-oxo-1,4-dihydroquinoline-3-carboxamide]: the inhibition at 20 µM was -17% at E. coli CsgA (setting [1]) and < -10% on E. coli CsgA (setting [2]).

In the case of `O=C(Nc1ccc(O)cc1)c1c[nH]c2cc(O)c(O)c(O)c2c1=O` [Compound 38, 5,6,7-trihydroxy-N-(4-hydroxyphenyl)-4-oxo-1,4-dihydroquinoline-3-carboxamide], at human α-synuclein, the “Inhibition of Aggregation, αSyn” value is given as 14% and the “Inhibition … (compound activity range)” value is recorded as “(+) ((+) is between 10% to 30% inhibition)”.

Regarding `COc1cc2[nH]cc(C(=O)Nc3ccccc3O)c(=O)c2c(OC)c1OC` [Compound 39, N-(2-hydroxyphenyl)-5,6,7-trimethoxy-4-oxo-1,4-dihydroquinoline-3-carboxamide], the values for the inhibition at 20 µM at E. coli CsgA (setting [1]) and at E. coli CsgA (setting [2]) were -4% and -10 to 10%, respectively.

In the case of `O=C(Nc1ccccc1)c1c[nH]c2ccccc2c1=O` [Compound 45, 4-oxo-N-phenyl-1,4-dihydroquinoline-3-carboxamide], the inhibition at 20 µM at E. coli CsgA (setting [1]) is -18%; at E. coli CsgA (setting [2]), < -10%.

Consider `O=C(Nc1cccc(O)c1)c1c[nH]c2ccccc2c1=O` [Compound 46, N-(3-hydroxyphenyl)-4-oxo-1,4-dihydroquinoline-3-carboxamide], for which the inhibition at 20 µM on E. coli CsgA (setting [1]) is -7%; on E. coli CsgA (setting [2]), -10 to 10%.

For the compound `O=C(Nc1cc(O)cc(O)c1)c1c[nH]c2cc(O)cc(O)c2c1=O` [Compound 47, N-(3,5-dihydroxyphenyl)-5,7-dihydroxy-4-oxo-1,4-dihydroquinoline-3-carboxamide], the inhibition at 20 µM at E. coli CsgA (setting [1]) was 13%; at E. coli CsgA (setting [2]), 10 to 30%.

In general, inhibition refers to the drop in the measured response relative to a control, in per cent.
